From article PMC9884808, “Pharmacokinetics, tissue distribution, and antitumor activity of a novel compound, NY-2, in non-small cell lung cancer” (Frontiers in Pharmacology, 2023) come the findings set out here.

A word on the IC50: it is the concentration needed to halve the response being measured.

SMILES strings stand for the structures. Read-outs that look alike come from different tables or passages of the source. Marks after values point to notes of the source that are not given here.

In one series the test system is HCT116. The series can be described thus: MTT cell viability assay. In kind it is cell-based, human. Set-up: key to IC50 HCT116: -: poor activity, cannot be unified. Particulars: for IC50: Homo sapiens, HCT-116, HCT116 colorectal cancer cells; for IC50 HCT116: HCT116 colorectal cancer cells. The protocol: (§1) The human colorectal cancer cell lines, HCT116 and LoVo, the breast cancer cell line, T47D, the hepatocellular carcinoma cell line, HepG2, the normal human liver cell line, HL7702, human umbilical vein endothelial cells (HUVECs), and the non-small cell lung cancer cell lines, A549, H1993, HCC827, H460, were purchased from the American Type Culture Collection (Manassas, VA, United States). Cell lines were cultured in the recommended RPMI-1640 medium (AE24464298, Hyclone, United States) and DMEM medium (AE29422278, Hyclone, United States) supplemented with 10% fetal bovine serum (FBS; JC63470, FB15015, Clark, United States) with 1% penicillin-streptomycin. Cells were maintained in an incubator at 37°C with 5% CO2 (HF90,Sanyo, Japan) and passaged every 48–72 h, after detaching with 0.25% trypsin (Sigma, United States). The compounds ZLDI-8 and NY-1 to -15 were synthesized in the laboratory of Dr. Huaiwei Ding in Shenyang Pharmaceutical University, and verified by high-performance liquid chromatography (purity >95%) for use in experiments (Supplementary Figure S1). Paclitaxel was purchased from MedChemExpress (HY-B0015, 99.97% purity, United States).
(§2) Cell viability was measured by the MTT assay. HCT116, HL7702, A549, H1993, HCC827, and H460 cells were dispensed into 96-well plates at a density of 1 × 10^5 cells/mL. After 24–48 h incubation, cells were treated with the compounds at different concentrations for the indicated periods. An assay kit (WLA073, Wanlei Co., Liaoning, China), was used according to the manufacturer’s instructions to measure LDH activity, The absorbance at 450 nm was measured with a microplate reader (Elx-800, Bio-Rad, China).
(§3) The preliminary antitumor activity of the series of ZLDI-8 derivatives, NY-1 to -15 was screened by the MTT cell viability assay. […] The antitumor activity of NY-2 on HCT116 cells was concentration- and time-dependent, and slightly better than that of the original compound, ZLDI-8.
A general note: Tetrazolium dyes change colour on reduction, which living cells bring about.

The next series relates to T47D. The series can be described thus: MTT cell viability assay. In kind it is cell-based, human. Further details: key to IC50 T47D: -: poor activity, cannot be unified. Particulars: T47D breast cancer cells; for IC50: Homo sapiens. The method, then:
as §1, §2, §3

For a further series, the system named is HepG2. The series can be described thus: MTT cell viability assay. In kind it is cell-based, human. Further details: key to IC50 HepG2: -: poor activity, cannot be unified. The settings on record: HepG2 hepatocellular carcinoma cells; for IC50: Homo sapiens. The protocol: as §1, §2, §3
The subject of the next series is LoVo. The series can be described thus: MTT cell viability assay. In kind it is cell-based, human. Further details: key to IC50 LoVo: -: poor activity, cannot be unified. The settings on record: LoVo colorectal cancer cells; for IC50: Homo sapiens. The method, then: as §1, §2, §3
A further series concerns A549 cells. The settings on record: 28 days, NY-2 6 mg/kg, paclitaxel 1 mg/kg; for Lung metastasis of nude mice, number of mice (%): six mice per group, model 5 mice (83.3%). The protocol:
The experimental groups included the normal (no tumor cells, vehicle) group, the model (tumor cells, vehicle) group, NY-2-treated, and paclitaxel-treated groups, with six mice in each group. After 7 days for adaptation, 200 µL of A549 cells (2× 10^6 cells/mice) in serum-free medium were injected into the tail vein except for those in the normal group. Drug or vehicle administration via tail vein was started on the next day. The normal group and model group were given the same amount of sterile water containing 1% DMSO and 1% Tween as vehicle control. […] Injections were done every other day. The general conditions of the nude mice, with regard to activity and food ingestion, were observed every day, and their body weight was measured every other day.
KM mice were treated with ZLDI-8 or NY-2 by tail vein injection (6 mg/kg) for 7 days, then the mice were euthanized and liver and kidney tissues were removed and sectioned. For the experiment with BALB/c nude mice, the tail vein injections of NY-2 (6 mg/kg) were continued for 28 days, and the lungs, tumor, heart, liver, and kidney were removed. […] Sections for staining were dewaxed with xylene and then rehydrated, and hematoxylin-eosin staining was performed, after which the sections were again dehydrated in ethanol and cleared with xylene before being mounted on a slide, cover-slipped and examined microscopically. The remainder of the tumors and tissues was frozen in liquid nitrogen for other studies.

Regarding `Cc1c(C=C2C(=O)NC(=S)NC2=O)c2ccccc2n1CCOc1ccc(Cl)cc1Cl` [NY-10], the IC50 with HCT116 was 26 µM; with T47D, 23.3 µM; in the series with HepG2, 66.7 µM; in the series with LoVo, 86.4 µM.
For the compound `Cc1c(C=C2C(=O)NC(=S)NC2=O)c2ccccc2n1CCOc1cccc(F)c1` [NY-4], the half-inhibitory concentration (IC50) came to 27.5 µM in the series with HCT116, 25.4 µM in the series on T47D and 41.8 µM in the series with LoVo. For the same compound, the “IC50 HepG2” value in the series with HepG2 is “-”.
Consider `Cc1c(C=C2C(=O)NC(=O)NC2=O)c2ccccc2n1CCOc1cccc(F)c1` [NY-5], for which the half-inhibitory concentration (IC50) came to 11.4 µM in the series with HCT116, 34 µM with T47D, 37.2 µM in the series on HepG2 and 23.5 µM in the series on LoVo.
The like results for `Cc1c(C=C2C(=O)NC(=S)NC2=O)c2ccccc2n1CCOc1cccc(C(F)(F)F)c1` [NY-7] were, in that order, 12.5 µM, 21.8 µM, 77.4 µM and 20.6 µM.
`Cc1c(C=C2C(=O)NC(=O)NC2=O)c2ccccc2n1CCOc1cccc(C(F)(F)F)c1` [NY-8]: in the series on HCT116, the “IC50 HCT116” value is recorded as “-”. Further, the 50% inhibitory concentration (IC50) with T47D was 10.3 µM; in the series on LoVo, 38.1 µM. Also, the “IC50 HepG2” value in the series with HepG2 is reported as “-”.
Consider `Cc1ccc(OCCn2c(C)c(C=C3C(=O)NC(=O)NC3=O)c3ccccc32)c(C)c1` [NY-1], for which the “IC50 HCT116” value with HCT116 is “-”. Also, in the series with T47D, the “IC50 T47D” value is “-”. This compound also showed an IC50 in the series on HepG2 of 26.2 µM. In the series with LoVo, the “IC50 LoVo” value was “-”.
Turning to `O=C1NC(=O)C(=Cc2cn(CCOc3cccc4ccccc34)c3ccccc23)C(=O)N1` [NY-15], the concentration for half-maximal inhibition (IC50) in the series on HCT116 worked out at 11.3 µM; in the series on T47D, 21.4 µM; with HepG2, 13.5 µM; in the series on LoVo it was 124 µM.
Taken in the same sequence, the figures for `O=C1NC(=O)C(=Cc2cn(CCOc3cccc(F)c3)c3ccccc23)C(=O)N1` [NY-6] were 38.8 µM, 53.7 µM, 40.8 µM and 28.7 µM.
Take `Cc1c(C=C2C(=O)NC(=O)NC2=O)c2ccccc2n1CCOc1cccc2ccccc12` [NY-14]: the “IC50 HCT116” value in the series on HCT116 is listed as “-”. In addition, the IC50 in the series on T47D was 74.3 µM. The “IC50 HepG2” value in the series with HepG2 is recorded as “-”. In addition, in the series with LoVo, the “IC50 LoVo” value was “-”.
Regarding `Cc1c(C=C2C(=O)NC(=O)NC2=O)c2ccccc2n1CCOc1ccc(Cl)cc1Cl` [NY-11], the “IC50 HCT116” value in the series on HCT116 is given as “-”. The figures for the concentration for half-maximal inhibition (IC50) in the series with T47D, in the series on HepG2 and in the series on LoVo were 16.6 µM, 90.1 µM and 23.2 µM, respectively.
As for `Cc1c(C=C2C(=O)NC(=O)NC2=O)c2ccccc2n1CCOc1ccc(F)cc1` [NY-3], the 50% inhibitory concentration (IC50) came out at 43.7 µM in the series with HCT116 and 21.4 µM in the series with LoVo. For the same compound, the “IC50 T47D” value with T47D is “-”. For the same compound, the “IC50 HepG2” value with HepG2 is on record as “-”.
For `CC(=O)O[C@H]1C(=O)[C@@]2(C)[C@H]([C@H](OC(=O)c3ccccc3)[C@]3(O)C[C@H](OC(=O)[C@H](O)[C@@H](NC(=O)c4ccccc4)c4ccccc4)C(C)=C1C3(C)C)[C@]1(OC(C)=O)CO[C@@H]1C[C@@H]2O` [Paclitaxel, reference compound], the “Body weight before dissection” value in the series with A549 cells (nude mice with A549 lung metastasis, tail vein every other day, n=6, mean ± SEM) is reported as 22.72 ± 0.32 g. Moreover, in the series on A549 cells (nude mice, n=6, mean ± SEM), the “Kidney as a proportion of body weight” value is on record as 1.74 ± 0.03 10^-2, the “Liver as a proportion of body weight” value is 5.45 ± 0.20# 10^-2, the “Lung as a proportion of body weight” value was 0.64 ± 0.02 10^-2 and the “Quality of the heart” value turned out to be 0.14 ± 0.01 g. In addition, in the series with A549 cells (nude mice, n=6, mean ± SEM), the “Quality of the kidney” value stood at 0.41 ± 0.01 g, the “Quality of the liver” value turned out to be 1.29 ± 0.06 g and the “Quality of the lung” value came to 0.15 ± 0.01 g. In addition, the “infiltration of A549 cells in the lung tissue (H&E)” value in the series on A549 cells (nude mice) is listed as “no infiltration of A549 cells in the lung tissue”. Besides, the “Lung metastasis of nude mice, number of mice (%)” value with A549 cells is recorded as 0 (0). In addition, in the series on A549 cells (listed as paclitaxel), the “Lung metastasis of nude mice, number of mice (%)” value is listed as “No metastatic tumors were found”.
Take `O=C1NC(=O)C(=Cc2cn(CCOc3cccc(C(F)(F)F)c3)c3ccccc23)C(=O)N1` [NY-9]: the IC50 in the series on HCT116 was determined as 35.3 µM; in the series on HepG2, 85.2 µM. Also, the “IC50 T47D” value in the series on T47D is reported as “-”. The “IC50 LoVo” value in the series on LoVo is on record as “-”.
Regarding `Cc1c(C=C2C(=O)NC(=S)NC2=O)c2ccccc2n1CCOc1cccc2ccccc12` [NY-13], the concentration for half-maximal inhibition (IC50) was determined as 12.8 µM in the series on HCT116, 5.15 µM in the series with T47D, 33.1 µM in the series with HepG2 and 43.2 µM in the series on LoVo.
Turning to `O=C1NC(=O)C(=Cc2cn(CCOc3ccc(Cl)cc3Cl)c3ccccc23)C(=O)N1` [NY-12], the half-inhibitory concentration (IC50) in the series with HCT116 worked out at 20 µM; in the series on T47D, 40.4 µM. In addition, the “IC50 HepG2” value with HepG2 is given as “-”. Also, the “IC50 LoVo” value in the series on LoVo was “-”.
